This passage reports IC50 and logD results from ChEMBL document CHEMBL1124130 (J Med Chem, 1988).

Series [1] deals with T1, Muscarinic acetylcholine receptor M1 (Rattus norvegicus, UniProt P08482).
T1 sequence (P08482 whole entry): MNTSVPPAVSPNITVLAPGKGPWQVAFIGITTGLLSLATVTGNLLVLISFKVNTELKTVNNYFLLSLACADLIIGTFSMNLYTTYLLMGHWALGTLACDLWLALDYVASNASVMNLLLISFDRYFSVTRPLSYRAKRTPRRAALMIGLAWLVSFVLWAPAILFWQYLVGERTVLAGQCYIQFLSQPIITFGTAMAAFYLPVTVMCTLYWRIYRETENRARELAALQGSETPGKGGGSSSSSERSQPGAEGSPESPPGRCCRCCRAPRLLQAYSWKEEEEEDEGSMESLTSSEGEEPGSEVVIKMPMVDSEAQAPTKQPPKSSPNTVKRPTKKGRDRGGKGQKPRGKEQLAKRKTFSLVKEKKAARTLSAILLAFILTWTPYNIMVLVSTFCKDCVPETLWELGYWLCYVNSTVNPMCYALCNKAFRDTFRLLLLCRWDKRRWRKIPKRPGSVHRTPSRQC
As to the kind of experiment: biochemical.
Description: Binding affinity towards Muscarinic acetylcholine receptor M1 of cerebral cortex

Series [2] deals with T2, Muscarinic acetylcholine receptor M2 (Rattus norvegicus, UniProt P10980).
T2 sequence (P10980 whole entry): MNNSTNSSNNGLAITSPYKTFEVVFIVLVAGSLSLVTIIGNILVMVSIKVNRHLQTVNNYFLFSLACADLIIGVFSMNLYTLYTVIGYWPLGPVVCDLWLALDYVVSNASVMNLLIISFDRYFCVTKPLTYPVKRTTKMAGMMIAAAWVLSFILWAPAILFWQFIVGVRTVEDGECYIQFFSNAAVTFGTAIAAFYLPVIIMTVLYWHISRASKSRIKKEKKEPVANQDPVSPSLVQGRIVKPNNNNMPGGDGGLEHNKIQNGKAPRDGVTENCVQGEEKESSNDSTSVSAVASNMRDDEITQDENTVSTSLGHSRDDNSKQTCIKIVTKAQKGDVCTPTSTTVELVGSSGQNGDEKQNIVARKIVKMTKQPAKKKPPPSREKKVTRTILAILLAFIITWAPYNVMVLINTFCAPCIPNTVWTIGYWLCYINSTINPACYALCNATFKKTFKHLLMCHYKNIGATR
As to the kind of experiment: Binding affinity towards muscarinic receptor of gastric fundus containing Muscarinic acetylcholine receptor M2. The series is classed as tissue-based, Stomach.

Series [3] addresses T1, Muscarinic acetylcholine receptor M1. As to the kind of experiment: Binding affinity towards muscarinic receptor of cerebral cortex containing Muscarinic acetylcholine receptor M1. The series is classed as tissue-based.
Series [4] in a line: Partition coefficient (log P) at pH 7.4. The series is classed as physicochemical. The conditions noted are these: octanol/water.

By IC50 is commonly meant the midpoint of a concentration-inhibition curve. Read a high IC50 as lower potency. On to `CN1CCC(CC(=O)N2c3ccccc3C(=O)Nc3cccnc32)CC1`, for which the IC50 in series [1] was 70 nM; in series [2] it was 700 nM.
Regarding `CN1CCCCC1CC(=O)N1c2ccccc2C(=O)Nc2cccnc21` (stereo not drawn), the figures for the IC50 in series [2] and in series [3] were 8 nM and 10 nM, respectively.
Regarding `CN1CCN(NC(=O)N2c3ccccc3C(=O)Nc3cccnc32)CC1`, the figures for the IC50 in series [1] and in series [2] were 60 nM and 900 nM, respectively.
As to `CN1CCC(OC(=O)N2c3ccccc3C(=O)Nc3cccnc32)CC1`, the IC50 in series [1] is 100 nM; in series [2] it was 900 nM.
As to `CN(C)CCC(=O)N1c2ccccc2C(=O)Nc2cccnc21`, the IC50 in series [2] and in series [3] was 200 nM each time.
In the case of `CN(C)CCCC(=O)N1c2ccccc2C(=O)Nc2cccnc21`, the figures for the IC50 in series [2] and in series [3] were 100 nM and 50 nM, respectively.
With `CN1CCN(C(=O)N2c3ccccc3C(=O)Nc3cccnc32)CC1`, the IC50 in series [1] was determined as 150 nM; in series [2] it was 600 nM.
By logD is commonly meant the decadic logarithm of the distribution of all forms, ionised or not, between an organic phase and buffer at a given pH. A high value points to a more lipophilic compound. For `CN1CCN(CC(=O)N2c3ccccc3NC(=O)c3cscc32)CC1`, the half-inhibitory concentration (IC50) in series [1] is 50 nM; in series [2], 350 nM. The same compound yielded a logD in series [4] of -0.15.
As to `CN(C)CC(=O)N1c2ccccc2C(=O)Nc2cccnc21`, the IC50 was determined as 1500 nM in series [1] and 700 nM in series [2].
In the same order, the values of `CN1CCC(NC(=O)N2c3ccccc3C(=O)Nc3cccnc32)CC1` are 200 nM and 1200 nM.
Take `CN1CCN(CC(=O)N2c3ccccc3NC(=O)c3ccccc32)CC1`: the IC50 is 23 nM in series [1] and 100 nM in series [2]. Moreover, the logD in series [4] turned out to be 0.11.
Regarding `CN1CCN(CC(=O)N2c3ccccc3NC(=O)c3cccnc32)CC1`, the figures for the IC50 in series [1] and in series [2] were 300 nM and 3000 nM, respectively. Besides, the logD in series [4] is -0.42.
On to `CN1CCN(CCC(=O)N2c3ccccc3C(=O)Nc3cccnc32)CC1`, for which the figures for the 50% inhibitory concentration (IC50) in series [2] and in series [3] were 12000 nM and 10000 nM, respectively.
With `CN(C)CCCCC(=O)N1c2ccccc2C(=O)Nc2cccnc21`, the IC50 is 600 nM in series [1] and 500 nM in series [2].
`CN1CCCC(CC(=O)N2c3ccccc3C(=O)Nc3cccnc32)CC1` (stereo not drawn): the IC50 stood at 150 nM in series [2] and 100 nM in series [3].
As to `CN1CCC(CC(=O)N2c3ccccc3C(=O)Nc3cccnc32)C1` (stereo not drawn), the IC50 in series [2] was determined as 50 nM; in series [3] it was 20 nM.
For `CN1CCCC(CC(=O)N2c3ccccc3C(=O)Nc3cccnc32)C1` (stereo not drawn), the IC50 was determined as 120 nM in series [2] and 100 nM in series [3].
In the case of `CN1CCN(CC(=O)N2c3ccccc3C(=O)Nc3cccnc32)CC1` [PIRENZEPINE], the logD in series [4] was -0.64.
